Where “and” joins values, the source holds several entries; their conditions need not be identical. Equal values may be shown once.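 96-well plates; 48 h exposure; 5 concentrations. Endpoints by linear interpolation between flanking doses. Not reached: highest tested concentration assigned. GI50 = concentration required for 50% inhibition of growth. TGI marks complete inhibition of growth.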
Assays:
Experiment in all cases: NCI-60 cell line screen, 48 h
A549 NSCLC = system: A549 NSCLC
HL-60(TB) leukemia = system: HL-60(TB) leukemia
NCI-H460 lung = system: NCI-H460 lung
NCI/ADR-RES ovarian = system: NCI/ADR-RES ovarian
OVCAR-5 ovarian = system: OVCAR-5 ovarian
SK-MEL-5 melanoma = system: SK-MEL-5 melanoma
TK-10 renal = system: TK-10 renal
U251 CNS = system: U251 CNS

Structure (SMILES)	GI50 (A549 NSCLC)	TGI (A549 NSCLC) [µM]	GI50 (HL-60(TB) leukemia) [µM]	TGI (HL-60(TB) leukemia) [µM]	GI50 (NCI-H460 lung)	TGI (NCI-H460 lung) [µM]	GI50 (NCI/ADR-RES ovarian)	TGI (NCI/ADR-RES ovarian) [µM]	GI50 (OVCAR-5 ovarian) [µM]	TGI (OVCAR-5 ovarian) [µM]	GI50 (SK-MEL-5 melanoma)	TGI (SK-MEL-5 melanoma)	GI50 (TK-10 renal) [µM]	TGI (TK-10 renal) [µM]	GI50 (U251 CNS)	TGI (U251 CNS) [µM]
COC(=O)[C@H](CCCCNC(=O)OCc1ccccc1)NC(=O)[C@@H](NC(=O)Nc1cc(C(F)(F)F)cc(C(F)(F)F)c1)C(C)C	> 10 µM	> 10	> 10	> 10	> 10 µM	> 10	> 10 µM	> 10	> 10	> 10	> 10 µM	> 10 µM	> 10	> 10	> 10 µM	> 10
COc1cccc(-c2nn(-c3ccccc3)cc2-c2ccnc(NCCCNS(=O)(=O)c3ccc(C(F)(F)F)cc3)c2)c1	6.65 µM	> 100	3.97	> 100	6 µM	> 100	3.86 µM	> 100	> 100	> 100	2.18 µM	5.04 µM	9.25	> 100	5.63 µM	> 100
O=C(c1ccc(Nc2nccc(NCCCCNc3ccnc4cc(Cl)ccc34)n2)cc1)N1CCCCC1	1.3 µM	11.9			0.475 µM	2.98	12.6 µM	> 100	4.32	25.9	1.61 µM	2.98 µM	2.16	4.83	1.53 µM	3.38
NC(Cc1c[nH]c2cccc(F)c12)C(=O)O (centres undefined)	98.7 µM and 679 µM	> 4500		> 4500	34.9 µM and 235 µM	2460	63.9 µM and 418 µM	2360	1280	> 4500	20.1 µM and 154 µM	54.7 µM and 458 µM	1220	> 4500	50.8 µM and 340 µM	1280
CCC(C(=O)[C@@H](C)[C@@H](O)[C@H](C)[C@@H]1O[C@@H]([C@@H](CC)C(=O)ONC(=O)c2ccccc2)CC[C@@H]1C)[C@H]1O[C@]2(C=CC(=O)[C@]3(CC[C@@](C)([C@H]4CC[C@](O)(CC)[C@H](C)O4)O3)O2)[C@H](C)C[C@@H]1C (some centres undefined)	0.168 µM	1.63	0.0875	0.442	0.331 µM	2.09	0.374 µM	2.28	0.498	2.18	0.105 µM	0.361 µM	1.1	2.44	0.11 µM	1.6
Cc1nn(-c2ccccc2)c2nc(C)n(-c3ccc(Br)cc3)c(=O)c12	0.927 µM	> 100	0.286	3.07	0.451 µM	> 39.1	0.449 µM	> 100	1.99	> 100	0.516 µM	11.1 µM	5.53	> 100	0.479 µM	> 100
CC[Si](CC)(CC)OC1[C@@H](O[Si](CC)(CC)CC)[C@@H](CNC(=O)NC)O[C@H]1n1cnc2c(NC(=O)Nc3ccccc3)ncnc21 (some centres undefined)	3.14 µM	> 100	2.49	6.32	2.48 µM	6.61	3.96 µM	> 100	4.06	62.1	2.01 µM	4.02 µM	2.65	9.88	4.06 µM	> 100
Cc1ccc(C2C3Cc4ccccc4C3=NN2c2ccc(S(=O)(=O)NC(=O)Nc3ccccc3)cc2)cc1 (centres undefined)	12.7 µM	27.8	19.6	42.1	19.3 µM	70.1	14.7 µM	38.8	14.5	30.5	13.1 µM	25.7 µM	16	36.4	14.3 µM	27.3
CC1(C)CC[C@]2(CO)CC[C@]3(C)C(=CC[C@@H]4[C@@]5(C)CCNCC(C)(C)[C@@H]5CC[C@]43C)[C@@H]2C1	8.23 µM	22.7	2.45	7.34	2.08 µM	4.82	9.4 µM	24.9	4.94	17.6	1.86 µM	3.64 µM	10.3	22.6	3.53 µM	13.5
C=CCN1C(=O)[C@]2(SC1=S)[C@H](c1cccc(Cl)c1)CN(C)[C@]21C(=O)NC2C=CC(Cl)=C[C@H]21 (some centres undefined)	3.3 µM	12.9	1.33	3.58	3.62 µM	13.6	4.18 µM	21.2	4.35	18.1	5.28 µM	18.2 µM	13	26.9	2.08 µM	4.62
CCC(C)C(=O)OC1CCC=C2C=CC(C)C(CCC3CC(O)CC(=O)O3)C21 (centres undefined)		> 100		> 100		> 100		> 100		> 100		> 100 µM		98.8		> 100
CC(=N/NC(N)=S)/C(C)=N/NC(N)=S		> 100		> 100		> 100		> 100		> 100		> 100 µM		> 100		
O=C(CCl)Nc1ccc(Cc2ccc(NC(=O)CCl)cc2)cc1	4.01 µM	> 100	2.07	4.84	2.09 µM	4.75	2.84 µM	> 100	2.27	5.52	1.37 µM	2.72 µM	4.17	> 75	1.4 µM	2.98
CC(=O)/C=C/c1ccc(N(CCO)Cc2ccc(C(C)(C)C)cc2)cc1	56.5 µM	182	24.9	66.8	39.9 µM	144	39.1 µM	174	63.3	211	39.9 µM	146 µM	112	237	66.1 µM	194
c1ccc2c(c1)[nH]c1c3ccccc3sc21		> 100		> 100		> 100		> 100		> 100		> 100 µM		> 100		> 100
COc1ccc2nc3ccccc3c(NCc3ccccc3)c2c1	1.87 µM	4.19	2.15	4.81	2.19 µM	4.86	2.09 µM	6.69	2.25	7.35	1.76 µM	3.17 µM	3.79	13.1	2.71 µM	8.34
O=C(Nc1ccc(Cl)cc1)N1CCN(c2ccc3nncn3n2)CC1			29.8	> 100	50.4 µM	> 100	> 100 µM	> 100	> 100	> 100	37.3 µM	> 100 µM	43	> 100	> 100 µM	> 100
C1=C\CCCCN2CC[C@H]3[C@H](CCCC/C=C\CCCN4C[C@@H](CCCCC/1)C[C@@H]3C4)C2	12.1 µM	26.8	2.77	10.8	5.58 µM	18.1	13.8 µM	28.8	12.5	25.5	4.75 µM	16.7 µM	2.98	12.4	4.25 µM	16.5

Structure (SMILES)	GI50 (A549 NSCLC)	TGI (A549 NSCLC) [µM]	GI50 (HL-60(TB) leukemia) [µM]	TGI (HL-60(TB) leukemia) [µM]	GI50 (NCI-H460 lung)	TGI (NCI-H460 lung) [µM]	GI50 (NCI/ADR-RES ovarian)	TGI (NCI/ADR-RES ovarian) [µM]	GI50 (OVCAR-5 ovarian) [µM]	TGI (OVCAR-5 ovarian) [µM]	GI50 (SK-MEL-5 melanoma)	TGI (SK-MEL-5 melanoma)	GI50 (TK-10 renal) [µM]	TGI (TK-10 renal) [µM]	GI50 (U251 CNS)	TGI (U251 CNS) [µM]
Cc1cn(C2CC(O)C(COC(N)=O)O2)c(=O)[nH]c1=O (centres undefined)		> 100		> 100		> 100		> 100		> 100		> 100 µM		> 100		> 100
C/C(=N\NC(=S)N1CCN(c2ccccn2)CC1)c1cccc2cccnc12		> 100		12.3		> 100		15.4		> 60.1		> 43.2 µM		> 100		> 29.7
O=C(Nc1cc2cc([N+](=O)[O-])ccc2oc1=O)c1cccs1		> 100		44.5		> 100		> 100		> 100		45 µM		> 100		> 100
Nc1ncnc2c1ncn2CCCCC(=O)O		> 100				> 100		> 100		> 100		> 100 µM		> 100		> 100
c1ccc(/C(=N\Nc2nc3ccccc3s2)c2ccccn2)cc1		> 100		6.54		12.8		> 100		> 51.4		7.91 µM		37.5		> 40.9
Cc1ccc2c(c1)C(O)(c1ccccc1)CCS2 (centres undefined)		> 100		89.6		> 100		> 100		80.6		> 100 µM		78.6		45.8
CCSCCCC(=O)O		> 100		> 100				> 100		> 100		> 100 µM		> 100		> 100
Oc1cc(O)c2c(c1)OC(c1ccc(O)c(O)c1)C(O)C2c1c(O)cc(O)c2c1OC(c1ccc(O)c(O)c1)C(O)C2 (centres undefined)		> 100				> 100		> 100		> 100		> 100 µM		> 100		> 100
C=C1C(O)C2CC(C)(C)C(=O)C2=C(CC(C)C)C12CC2 (centres undefined)	> 100 µM	> 100			> 100 µM	> 100	> 100 µM	> 100	> 100	> 100	> 100 µM	> 100 µM	> 100	> 100	> 100 µM	> 100
Cc1ccc(/C(=C/C=C(C#N)C#N)Sc2nc3ccccc3s2)cc1	19.8 µM	45.5	7.02	> 100	18.3 µM	75.3	4.24 µM	18.7	24.1	42.1	13.3 µM	26.6 µM	2.42	6.37		
COc1ccc(C(Nc2ccccn2)c2cc(C(C)(C)C)cc(C(C)(C)C)c2O)cc1 (centres undefined)		> 100				55.7		> 100		> 100		31.3 µM		> 100		> 100
O=C(O)c1cc(Cl)cc(Cc2cc(Cl)cc(C(=O)O)c2O)c1O		> 100				> 100		> 100		> 100		> 100 µM		> 100		> 100
CCCCNCCCCCNc1cc(OC)cc2cccnc12	20.7 µM	51.3			89.4 µM	> 100	17.2 µM	36.4	15.1	30.9	12.6 µM	27.6 µM	23.4	44.5	42.6 µM	> 100
N/C(=N/S(=O)(=O)c1cc(C(=O)Nc2ccc(F)cc2)c(Cl)cc1SCc1ccccc1)Nc1ccccc1O	2.36 µM	4.71			2.93 µM	8.29	> 100 µM	> 100	16.4	31.3	1.85 µM	4.57 µM	2.8	8.61	1.78 µM	3.22
CCOP(=O)(OCC)C(NC(c1ccccc1)c1ccccc1)c1ccc(C(C)C)cc1 (centres undefined)	4.84 µM	23.2			5.91 µM	> 100	2.14 µM	7.52			3.35 µM	7.86 µM	3.32	14.4	3.63 µM	13.9
COc1cc(NCCC2CCCCN2)c2ncccc2c1OC (centres undefined)	19.4 µM	41.9			10.5 µM	24.8	22.8 µM	70.5	19.1	62.7	4.28 µM	14.9 µM	22.1	39.7	4.12 µM	16
Oc1ccc(/C=N/NC(=S)Nc2cccnc2)nc1		> 100		14.4				9.59		> 100		> 100 µM		> 25.7		> 67
CCOC(=O)c1ccc(NC(=O)c2cccc(NC3=C(Cl)C(=O)N(Cc4ccccc4)C3=O)c2)cc1	> 100 µM	> 100	17.2	45.9	> 100 µM	> 100					> 100 µM	> 100 µM	> 100	> 100	> 100 µM	> 100

From PubChem BioAssay (NCI)
